From patent US4873225A, “1-n-(4-amino-3-fluoro-2-hydroxybutyryl)-kanamycins” (Zaidan Hojin Biseibutsu Kagaku Kenkyu Kai, priority 1987, dated 1989)
≈ marks a conversion by molar mass, not a printed value. Where two headings read alike, the source gives them in different places.

Tests used:
Test in all cases: MIC, standard serial dilution method
Type in all cases: cell-based
[1] = tested on: Escherichia coli K-12 LA 290 R55; conditions: K12LA290R55, pH 7
Procedure: (§1) Antibacterial activities of each of the abovementioned compounds of the general formula (I) according to this invention were determined by measuring their minimum growth inhibitory concentrations (MIC, mcg/ml) against various bacteria in accordance with a standard serial dilution method. The pH condition of the incubation medium where the MIC data were measured was set at pH 7, unless otherwise specifically indicated. For the sake of comparison, the antibacterial spectra of 1-N-{(S)-4-amino-2-hydroxybutyryl}kanamycin A (i.e., amikacin) and 1-N-{(S)-4-amino-2-hydroxybutyryl}-3,4-dideoxykanamycin B (i.e., habekacin) were also measured in the same manner.

[2] = tested on: Klebsiella pneumoniae 22 #3038
Procedure: as §1

[3] = tested on: Escherichia coli K-12 ML 1629; conditions: K12ML1629, pH 7, read-out: MIC
Procedure: as §1

[4] = tested on: Serratia marcescens
Procedure: as §1

[5] = tested on: Mycobacterium 607; conditions: Mycobacterium, 607, pH 7; read-out: MIC
Procedure: as §1

[6] = tested on: Staphylococcus aureus Ap01; conditions: AP01, pH 7, read-out: MIC
Procedure: as §1

[7] = tested on: Staphylococcus aureus 209P; conditions: pH 7, read-out: MIC
Procedure: as §1

[8] = tested on: Escherichia coli JR 225; conditions: JR225, pH 7
Procedure: as §1

[9] = tested on: Bacillus subtilis PCI219; conditions: PCI219, pH 7, read-out: MIC
Procedure: as §1

[10] = tested on: Providencia sp. Pv 16
Procedure: as §1

[11] = tested on: Pseudomonas aeruginosa A3; conditions: A3, pH 7, read-out: MIC
Procedure: as §1

[12] = tested on: Corynebacterium bovis 1810; conditions: Corynebacterium bovis, 1810, pH 7; read-out: MIC
Procedure: as §1

[13] = tested on: Pseudomonas aeruginosa GN 315; conditions: GN315, pH 7
Procedure: as §1

[14] = tested on: Proteus rettgeri GN 311; conditions: Providencia rettgeri, GN311, pH 7; read-out: MIC
Procedure: as §1

[15] = tested on: Escherichia coli K-12; conditions: K12, pH 7
Procedure: as §1

[16] = tested on: Escherichia coli K-12 R5; conditions: K12R5, pH 7
Procedure: as §1
Infectious diseases by Escherichia coli K-12 R5 tend to increase in recent days. The compounds of this invention are therefore important for the therapeutic treatment of bacterial infections.

[17] = tested on: Escherichia coli JR66/W677; conditions: for MIC: Escherichia coli
Procedure: as §1
(§2) (a) The antibacterial activities of the compounds of this invention are not decreased practically even under pH conditions of pH […] as compared to their antibacterial activities under neutral conditions of pH 7.

[18] = tested on: Pseudomonas aeruginosa TI 13; conditions: for MIC: Pseudomonas aeruginosa, read-out: MIC
Procedure: as §1, §2

[19] = JR66/W677, measured at pH 6, read-out: MIC

Row | Compound | MIC [1] [µg/mL] | MIC ([2]; pH 7, read-out: MIC) [µg/mL] | MIC [3] [µg/mL] | MIC ([4]; pH 7, read-out: MIC) [µg/mL] | MIC [5] [µg/mL] | MIC [6] [µg/mL] | MIC [7] [µg/mL] | MIC [8] [µg/mL] | MIC [9] [µg/mL] | MIC ([10]; SP.PV16, pH 7, read-out: MIC) [µg/mL] | MIC [11] [µg/mL] | MIC [12] [µg/mL] | MIC [13] [µg/mL] | MIC [14] [µg/mL] | MIC [15] [µg/mL] | MIC [16] [µg/mL] | MIC ([17]; JR66/W677, pH 7, read-out: MIC) [µg/mL] | MIC [17, 19] [µg/mL] | MIC ([18]; TI13, pH 7) [µg/mL] | MIC ([18]; TI13, measured at pH 6) [µg/mL] | also measured
1 | NC[C@@H](F)[C@H](O)C(=O)N[C@@H]1C[C@H](N)[C@@H](O[C@H]2O[C@H](CN)[C@@H](O)[C@H](O)[C@H]2O)[C@H](O)[C@H]1O[C@H]1O[C@H](CO)[C@@H](O)[C@H](N)[C@H]1O [Invention Compound No. 1, 1-N-{(2R,3R)-4-Amino-3-fluoro-2-hydroxybutyryl}-kanamycin A] | 1.56 (≈ 2.58 µM) | 3.12 (≈ 5.17 µM) | 1.56 (≈ 2.58 µM) | 3.12 (≈ 5.17 µM) | 1.56 (≈ 2.58 µM) | 6.25 (≈ 10.4 µM) | 1.56 (≈ 2.58 µM) | 0.78 (≈ 1.29 µM) | 0.78 (≈ 1.29 µM) | 1.56 (≈ 2.58 µM) | 0.78 (≈ 1.29 µM) | 0.78 (≈ 1.29 µM) | 25 (≈ 41.4 µM) | 0.39 (≈ 0.646 µM) | 0.39 (≈ 0.646 µM) | 12.5 (≈ 20.7 µM) | 1.56 (≈ 2.58 µM) | 6.25 (≈ 10.4 µM) | 3.12 (≈ 5.17 µM) | 3.12 (≈ 5.17 µM) | –
2 | NC[C@@H](F)[C@H](O)C(=O)N[C@@H]1C[C@H](N)[C@@H](O[C@H]2O[C@H](CN)[C@@H](O)[C@H](O)[C@H]2N)[C@H](O)[C@H]1O[C@H]1O[C@H](CO)[C@@H](O)[C@H](N)[C@H]1O [Invention Compound No. 5, 1-N-{(2R,3R)-4-Amino-3-fluoro-2-hydroxybutyryl}-kanamycin B] | 0.78 (≈ 1.29 µM) | 3.12 (≈ 5.18 µM) | 0.78 (≈ 1.29 µM) | 6.25 (≈ 10.4 µM) | 12.5 (≈ 20.7 µM) | 6.25 (≈ 10.4 µM) | 0.78 (≈ 1.29 µM) | 0.39 (≈ 0.647 µM) | 1.56 (≈ 2.59 µM) | 1.56 (≈ 2.59 µM) | 0.78 (≈ 1.29 µM) | 0.39 (≈ 0.647 µM) | 6.25 (≈ 10.4 µM) | 0.39 (≈ 0.647 µM) | 0.2 (≈ 0.332 µM) | 3.12 (≈ 5.18 µM) | 0.78 (≈ 1.29 µM) | 3.12 (≈ 5.18 µM) | 1.56 (≈ 2.59 µM) | 3.12 (≈ 5.18 µM) | –
3 | NCC[C@H](O)C(=O)N[C@@H]1C[C@H](N)[C@@H](O[C@H]2O[C@H](CN)CC[C@H]2N)[C@H](O)[C@H]1O[C@H]1O[C@H](CO)[C@@H](O)[C@H](N)[C@H]1O [Habekacin, 1-N-{(S)-4-amino-2-hydroxybutyryl}-3,4-dideoxykanamycin B, reference compound] | 0.78 (≈ 1.41 µM) | – | 0.78 (≈ 1.41 µM) | – | 0.39 (≈ 0.706 µM) | 0.39 (≈ 0.706 µM) | < 0.2 | 0.78 (≈ 1.41 µM) | < 0.2 | – | < 0.2 | 0.39 (≈ 0.706 µM) | 3.12 (≈ 5.65 µM) | 0.78 (≈ 1.41 µM) | 0.39 (≈ 0.706 µM) | 25 (≈ 45.2 µM) | 0.78 (≈ 1.41 µM) | – | 0.78 (≈ 1.41 µM) | 25 (≈ 45.2 µM) | MIC ([2]; pH 7): 1.56 µg/mL (≈ 2.82 µM); MIC ([4]; pH 7): 12.5 µg/mL (≈ 22.6 µM); MIC ([10]; SP.PV16, pH 7): 1.56 µg/mL (≈ 2.82 µM); MIC ([17]; JR66/W677, pH 6): 6.25 µg/mL (≈ 11.3 µM); antibacterial activity (MIC) at pH 6 as compared to pH 7 ([17]; pH 6 vs pH 7): reduced considerably at pH 6; antibacterial activity (MIC) at pH 6 as compared to pH 7 ([18]; pH 6 vs pH 7): reduced considerably at pH 6
4 | NC[C@@H](F)[C@H](O)C(=O)N[C@@H]1C[C@H](N)[C@@H](O[C@H]2O[C@H](CN)[C@@H](O)C[C@H]2N)[C@H](O)[C@H]1O[C@H]1O[C@H](CO)[C@@H](O)[C@H](N)[C@H]1O [Invention Compound No. 6, 1-N-{(2R,3R)-4-Amino-3-fluoro-2-hydroxybutyryl}-3'-deoxykanamycin B] | 0.39 (≈ 0.665 µM) | 1.56 (≈ 2.66 µM) | 0.78 (≈ 1.33 µM) | 3.12 (≈ 5.32 µM) | 0.78 (≈ 1.33 µM) | 0.78 (≈ 1.33 µM) | 0.39 (≈ 0.665 µM) | < 0.2 | 0.2 (≈ 0.341 µM) | 0.78 (≈ 1.33 µM) | < 0.2 | 0.39 (≈ 0.665 µM) | 3.12 (≈ 5.32 µM) | 0.39 (≈ 0.665 µM) | < 0.2 | 3.12 (≈ 5.32 µM) | 0.39 (≈ 0.665 µM) | 1.56 (≈ 2.66 µM) | 0.78 (≈ 1.33 µM) | 3.12 (≈ 5.32 µM) | –
5 | NC[C@@H]1CC[C@@H](N)[C@@H](O[C@H]2[C@H](O)[C@@H](O[C@H]3O[C@H](CO)[C@@H](O)[C@H](N)[C@H]3O)[C@H](NC(=O)[C@@H](O)[C@H](F)CN)C[C@@H]2N)O1 [Invention Compound No. 7, 1-N-{(2R,3R)-4-Amino-3-fluoro-2-hydroxybutyryl}-3',4'-dideoxykanamycin B] | 0.39 (≈ 0.683 µM) | 0.78 (≈ 1.37 µM) | 0.78 (≈ 1.37 µM) | 3.12 (≈ 5.47 µM) | 0.78 (≈ 1.37 µM) | 0.78 (≈ 1.37 µM) | < 0.2 | 0.78 (≈ 1.37 µM) | < 0.2 | 0.78 (≈ 1.37 µM) | 0.39 (≈ 0.683 µM) | < 0.2 | 3.12 (≈ 5.47 µM) | < 0.2 | < 0.2 | 3.12 (≈ 5.47 µM) | 0.78 (≈ 1.37 µM) | 1.56 (≈ 2.73 µM) | 0.78 (≈ 1.37 µM) | 1.56 (≈ 2.73 µM) | –
6 | NC[C@@H](F)[C@H](O)C(=O)N[C@@H]1C[C@H](N)[C@@H](O[C@H]2O[C@H](CN)[C@@H](O)[C@H](O)[C@H]2O)[C@H](F)[C@H]1O[C@H]1O[C@H](CO)[C@@H](O)[C@H](N)[C@H]1O [Invention Compound No. 4, 1-N-{(2R,3R)-4-Amino-3-fluoro-2-hydroxybutyryl}-5-deoxy-5-fluorokanamycin A] | 0.78 (≈ 1.29 µM) | 3.12 (≈ 5.15 µM) | 0.39 (≈ 0.644 µM) | 6.25 (≈ 10.3 µM) | 3.12 (≈ 5.15 µM) | 6.25 (≈ 10.3 µM) | 1.56 (≈ 2.58 µM) | 0.39 (≈ 0.644 µM) | 3.12 (≈ 5.15 µM) | 1.56 (≈ 2.58 µM) | 1.56 (≈ 2.58 µM) | 0.39 (≈ 0.644 µM) | 25 (≈ 41.3 µM) | 1.56 (≈ 2.58 µM) | 0.78 (≈ 1.29 µM) | 6.25 (≈ 10.3 µM) | 1.56 (≈ 2.58 µM) | 3.12 (≈ 5.15 µM) | 3.12 (≈ 5.15 µM) | 3.12 (≈ 5.15 µM) | –
